In patent publication EP4692072A1, “PHOTOCHROMIC COMPOUND, PROPARGYL ALCOHOL COMPOUND, CURABLE COMPOSITION, OPTICAL ARTICLE, LENS, AND SPECTACLES” (TOKUYAMA CORPORATION, priority 2023, dated 2024):

Columns and labels:
Assay type in all cases: physicochemical
[1] = Photochromic properties of photochromic laminate (plastic lens) prepared by coating method; settings: 40 µm photochromic layer on thiourethane lens, 0.25 mmol compound per 100 g monomers, after color development
From the text: (§1) First, the photochromic compound obtained in Example 1, a photoinitiator, and a polymerizable compound were mixed to obtain a curable composition.
(§2) Polyethylene glycol dimethacrylate (average molecular weight: 736): 42 parts by mass • Polyethylene glycol dimethacrylate (average molecular weight: 536): 12 parts by mass • Trimethylolpropane trimethacrylate: 38 parts by mass γ-methacryloyloxypropyl trimethoxysilane: 2 parts by mass Glycidyl methacrylate: 1 part by mass
(§3) Note that the photochromic compound was added to the curable composition so that the amount of the photochromic compound was 0.25 mmol based on 100 g of the total amount of the radical-polymerizable monomers.
(§4) Phenylbis(2,4,6-trimethylbenzoyl)phosphine oxide (photoinitiator: Omnirad 819): 0.3 parts by mass Ethylene bis(oxyethylene) bis[3-(5-tert-butyl-4-hydroxy-m-tolyl)propionate] (stabilizer, Irganox 245): 1 part by mass Bis(1,2,2,6,6-pentamethyl-4-piperidyl) sebacate: 3 parts by mass Leveling agent (L7001) manufactured by Dow Corning Toray Co.,Ltd.: 0.1 part by mass
(§5) First, a thiourethane-based plastic lens having a central thickness of 2 mm and a refractive index of 1.60 was prepared as the optical substrate. Note that this thiourethane-based plastic lens was pre-treated by alkaline etching with a 10% sodium hydroxide aqueous solution at 50°C for 5 minutes, followed by sufficient washing with distilled water.
(§6) A surface of the above-described plastic lens was coated with a moisture-curable primer (product name: TR-SC-P, manufactured by Tokuyama Corporation) at a rotation frequency of 70 rpm for 15 seconds, followed by 1000 rpm for 10 seconds, using a spin coater (1H-DX2, manufactured by MIKASA CO., LTD), Subsequently, about 2 g of the photochromic curable composition obtained above was spin-coated at a rotation frequency of 60 rpm for 40 seconds, followed by 600 rpm for 10 to 20 seconds, to form a photochromic coating layer with a film thickness of 40 µm.
(§7) The lens with the surface coated with the photochromic curable composition (photochromic coating layer) was irradiated with light using a metal halide lamp with an output power of 200 mW/cm^2 in a nitrogen gas atmosphere for 90 seconds to cure the coating film. Subsequently, the lens was further heated at 110°C for 1 hour to prepare a photochromic laminate having a photochromic layer.
In the same manner as in Example 26, photochromic laminates were prepared using the photochromic compounds obtained in Examples 2 to 25.
(§8) • [1] Maximum Absorption Wavelength (λmax): The maximum absorption wavelength after color development, measured using a spectrophotometer (instantaneous multichannel photodetector MCPD3000) manufactured by Otsuka Electronics Co., Ltd. was used as an indicator for the color tone during the color development. • [2] 23°C Color Optical Density (A23): A difference between an absorbancy measured after light irradiation at 23°C for 300 seconds {ε(300)} and an absorbancy without light irradiation ε(0) at the maximum absorption wavelength was used as an indicator for the color optical density. […] 23°C color fading half-life [τ1/2 (sec.)]: A time required for the absorbancy of the sample at the maximum absorption wavelength to decrease to 1/2 of {ε(300)-ε(0)} when the light irradiation was terminated after the light irradiation at 23°C for 300 seconds, was used as an indicator for the color fading speed. The shorter this time, the higher the color fading speed. • [4] Residual rate (A120/A0×100): The obtained photochromic plastic lens was subjected to accelerated deterioration using a xenon weather meter X25 manufactured by Suga Test Instruments Co., Ltd. for 120 hours. Subsequently, the color optical density was evaluated before and after the test, then a color optical density before the test (A0) and a color optical density after the test (A120) were measured, and a ratio (A120/A0) was defined as a residual rate. The residual rate was used as an indicator for a color developing durability. […]

[2] = Accelerated deterioration (xenon weather meter X25, 120 hours) of photochromic laminate prepared by coating method; settings: 0.25 mmol per 100 g monomers, A120/A0×100 after 120 hours xenon weather meter
From the text: as §1, §2, §3, §4, §5, §6, §7
as §8, with “durability. The higher the residual rate, the higher the color developing durability.” for “durability.”

[3] = Photochromic properties of photochromic cured product prepared by kneading method; settings: 0.106 mmol per 100 g monomer
Procedure: (§9) • [1] Maximum Absorption Wavelength (λmax): The maximum absorption wavelength after color development, measured using a spectrophotometer (instantaneous multichannel photodetector MCPD3000) manufactured by Otsuka Electronics Co., Ltd. was used as an indicator for the color tone during the color development. • [2] 23°C Color Optical Density (A23): A difference between an absorbancy measured after light irradiation at 23°C for 300 seconds {ε(300)} and an absorbancy without light irradiation ε(0) at the maximum absorption wavelength was used as an indicator for the color optical density. […] 23°C color fading half-life [τ1/2 (sec.)]: A time required for the absorbancy of the sample at the maximum absorption wavelength to decrease to 1/2 of {ε(300)-ε(0)} when the light irradiation was terminated after the light irradiation at 23°C for 300 seconds, was used as an indicator for the color fading speed. The shorter this time, the higher the color fading speed. • [4] Residual rate (A120/A0×100): The obtained photochromic plastic lens was subjected to accelerated deterioration using a xenon weather meter X25 manufactured by Suga Test Instruments Co., Ltd. for 120 hours. Subsequently, the color optical density was evaluated before and after the test, then a color optical density before the test (A0) and a color optical density after the test (A120) were measured, and a ratio (A120/A0) was defined as a residual rate. The residual rate was used as an indicator for a color developing durability. The higher the residual rate, the higher the color developing durability. The results of Examples 26, 50, and Comparative Examples 1 to 8 are summarized in Table 1, and the results of Examples 27 to 49 are summarized in Tables 2 and 3.
(§10) First, the photochromic compound obtained in Example 1, additives, and a polymerizable compound were mixed to obtain a curable composition.
(§11) As the polymerizable compound, a combination of the following polymerizable monomers was used. • 1,3-bis(isocyanatomethyl)cyclohexane: 36.7 parts by mass Pentaerythritol tetrakis(3-mercaptopropionate): 39.4 parts by mass • Polyoxyethylene polyoxypropylene lauryl ether (Wonder Surf 140 manufactured by Aoki Oil Industrial Co., Ltd.): 17.4 parts by mass • 1-decanethiol: 2.8 parts by mass • RX-1 adjusted according to the method described in Patent Document 13: 3.8 parts by mass
(§12) Note that the photochromic compound was added to the curable composition so that the amount of the photochromic compound was 0.106 mmol based on 100 g of the total amount of the polymerizable monomer. The following additives were used: Dimethyltin dichloride • : 0.05 part by mass • Irganox 245: 0.1 part by mass • 2-ethylhexyl 4-methoxycinnamate: 0.6 part by mass
(§13) The prepared curable composition was thoroughly defoamed, then injected into a glass mold having a 1 mm gap, and polymerized by cast polymerization. The polymerization was carried out in an air furnace while gradually raising the temperature from 27°C to 120°C over 18 hours. After the polymerization, the cured product was removed from the glass mold to obtain a photochromic cured product having a thickness of 1 mm. The obtained photochromic cured product was evaluated in the same manner as in Example 26.
(§14) (Examples 85 to 99, and Comparative Example 14 to 18) Photochromic cured products were prepared using photochromic compounds presented in Tables 6 and 7 in the same manner as in Example 84. The results of Examples 84 and 85 and Comparative Examples 14 to 18 are summarized in Table 6, and the results of Examples 86 to 99 are summarized in Table 7.

[4] = Accelerated deterioration (xenon weather meter X25, 120 hours) of photochromic cured product prepared by kneading method; settings: 1 mm cured product, 0.106 mmol per 100 g monomer, A120/A0×100 after 120 hours xenon weather meter
Procedure: as §9, §10, §11, §12, §13, §14

## CCC1(CC)CCC2(CC1)c1ccccc1-c1c2c2c(c3cc(OC)c(N(c4ccccc4)c4ccccc4)cc13)OC(c1ccc(C)cc1)(c1ccc(N(C)c3ccc(C)cc3)cc1)C=C2 (centres unmarked) [Example 2]
[1]
  Maximum absorption wavelength: 522 nm
[2]
  Residual rate: 67%
[3]; 1 mm cured product, 23°C color optical density ε(300)-ε(0)
  A23: 1.41 -
[3]; 1 mm thiourethane cured product, after color development
  Maximum absorption wavelength: 526 nm
[4]
  Residual rate: 72%
